The numbers were not newly measured in patent US6555530B1, “Use of estrogens and delta-gonadien-21-Ol-3,20-diones for treating insulin dependent and non-insulin dependent diabetes” (Novo Nordisk A/S, priority 1999, dated 2003), which cites them from elsewhere.

Data set [1] has as its system intact or ovarectomized female rats. Particulars: correlated to morphological changes in muscle.
For data set [2], the system named is streptozotocin diabetic rats. Conditions: implanted testosterone.

For `C[C@]12CC[C@H]3[C@@H](CCC4=CC(=O)CC[C@@]43C)[C@@H]1CC[C@@H]2O` [Testosterone], the insulin resistance entry in data set [1] was “marked insulin resistance”. Besides, the “glycemic control by residual insulin” value in data set [2] is “antagonized the ability of residual insulin to maintain glycemic control”.
